US8163709B2, “TAK1-D mediated induction of cell death in human cancer cells by specific sequence short double-stranded RNAS” (Board of Regents of the University of Texas System, priority 2008, dated 2012)
“Also recorded” adds a separate entry of the source.

How the values were obtained:
[1] = system: TAK1-A; test: Autophosphorylation of the other (long) Tak1 splicing variants in H460 cells; format: cell-based, human; details: siRNA 20 nM
Description: In contrast only the long form (TAK1-A) is able to activate the NFκB pathway through phosphorylation of IKKα/β.

[2] = system: cdc25B; test: Nuclear cdc25B level in NCI-H460 cells; format: cell-based, human
Description: P38 MAPK as well as SPK/JNK have a large number of downstream targets. Amongst these, the phosphorylation of the cell cycle control phosphatase cdc25 (Bulavin et al., 2001; Goss et al., 2003) are of particular interest, as these phosphorylations have the potential to transduce an immediate and direct effect of TAK1-D activation to the cell cycle. […] In contrast, both cdc25A and cdc25B were found in the nucleus and therefore capable of cell cycle control. […] The occurrence of this shifted form of cdc25A is indicative of phosphorylation and inactivation of cdc25A (Zhao et al., 2002). The amount of cdc25B in the nucleus decreases with kinetics similar to the phosphorylation of cdc25A, indicative for a phosphorylation dependent translocation and proteolytic digestion of cdc25B (Cans et al., 1999). Therefore, it can be concluded that activation of TAK1-D in NCI-H460 cells leads to an inactivation of cdc25A and cdc25B through p38 MAPK and SAPK/JNK mediated phosphorylation and proteolytic destruction.

[3] = biological target: T1, TAK1-D (Homo sapiens, UniProt O43318); test: Binding of radiolabeled siRNAs to immobilized FLAG-TAK1-D; design: made in house; details: kinase assay buffer conditions, 3 experiments
T1 sequence (O43318 1-491 isoform O43318-4): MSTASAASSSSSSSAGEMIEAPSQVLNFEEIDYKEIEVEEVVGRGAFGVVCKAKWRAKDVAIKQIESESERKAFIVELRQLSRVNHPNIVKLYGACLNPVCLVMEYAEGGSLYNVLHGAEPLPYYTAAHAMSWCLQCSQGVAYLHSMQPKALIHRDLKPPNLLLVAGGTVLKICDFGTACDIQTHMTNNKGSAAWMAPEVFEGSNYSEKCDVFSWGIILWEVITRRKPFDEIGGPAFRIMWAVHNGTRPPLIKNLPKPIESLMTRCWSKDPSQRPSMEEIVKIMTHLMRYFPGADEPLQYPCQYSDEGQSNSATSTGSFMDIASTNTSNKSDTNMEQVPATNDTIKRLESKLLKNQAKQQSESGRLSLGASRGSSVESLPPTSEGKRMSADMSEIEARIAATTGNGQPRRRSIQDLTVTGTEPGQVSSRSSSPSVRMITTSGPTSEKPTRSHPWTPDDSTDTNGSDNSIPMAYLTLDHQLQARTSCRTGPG
Description: FIGS. 2A-C: Effect of dsRNAs on the activity of purified recombinant TAK1-D protein. (FIG. 2A) In vitro kinase assay showing the activation of TAK1-D autophosphorylation by siRNA si5. FLAG-tagged TAK1-D and His-tagged TAB1 were coexpressed in Hela cells and purified by immunoprecipitation with anti FLAG antibody. […] Error bars indicate the standard error of 3 experiments.
To verify if siRNA si5 indeed interacts with TAK1-D directly, the activation of the kinase was studied in vitro using purified proteins. […] To test whether the increased activation of the TAK1-D/TAB1 complex by siRNA si5 is caused by an increased affinity of the RNA molecule to the kinase, binding of radiolabeled siRNAs to immunoprecipitated FLAG tagged TAK1-D was measured. In FIG. 2C the amount of RNA bound to immobilized FLAG-TAK1-D is given.

[4] = system: normal human skin fibroblasts; test: Crystal Violet staining of normal human skin fibroblasts; format: cell-based; details: up to 20 nM, 48 h
Protocol: In order to obtain preliminary data describing the response of normal tissue cells to dsRNA mediated Tak1-D activation normal human fibroblasts as well as human bronchial epithelial cells (HBEC) were plated into 12-well multiwell plates, treated with siRNA si5 or si6 in different concentrations and stained with Crystal Violet 48 h later. […] […].

[5] = system: H460 xenograft tumors; test: Immunohistochemistry for cleaved Caspase-3 in H460 xenograft tumors; format: in vivo, mice; details: 16 hours after intratumoral injection
Protocol: To gain an insight into the mechanisms of dsRNA si5-induced growth delay in H460 xenograft tumors shown in FIG. 26, the tumors were analyzed by immunohistochemical staining for apoptotic activation of Caspase-3. Two tumors with a volume of about 500 μl were injected with a liposomal preparation of active and control dsRNA as described above. Sixteen hours after injection mice were sacrificed and the tumors were fixed in formaldehyde. After paraffin embedding 5 μm sections were cut from the central region of the tumor. The sections were stained immunohistochemically using a primary antibody against cleaved Caspase-3. The primary antibody was detected using a biotinylated secondary antibody and an peroxidase ABC-Kit (Vector Laboratories). Diaminobenzidine (DAB) was used as a substrate for immunohistochemical detection and the slides were counterstained with Hematoxylin.

[6] = system: H460 cells; test: Apoptosis in H460 cells (caspase 3 cleavage, PARP cleavage, nuclear morphology); format: cell-based, human
Description: Cell cycle arrest triggers programmed cell death in many tumor cell lines.
As cell cycle arrest is incompatible with survival in many tumor cell lines the cellular response of H460 cells to the treatment with dsRNA si5 was investigated.
Survival assay and apoptosis scoring.

[7] = system: p38 MAPK; test: p38 MAPK cascade activation in HCC2279 cells (Western blot); format: cell-based, human
Description: A possible application for the above mentioned findings in cancer therapy requires data on the effects of dsRNA mediated activation of Tak1-D in other tumors and in normal tissues. To test whether dsRNA mediated cell killing also occurs in other tumor cell lines, the NSCLC cell line HCC2279 was chosen. This cell line originated from an adenocarcinoma and was initially described by Wistuba et al. (1999).

Substance: si5: 21-mer siRNA against TLK1 mRNA: GGCUUUUGACCUUUAUGAAtt (SEQ ID NO: 2) / ttCCGAAAACUGGAAAUACUU (SEQ ID NO: 3) (sense GGCUUUUGACCUUUAUGAATT; antisense TTCCGAAAACUGGAAAUACUU; chemistry not given here; one strand is listed 3' to 5')
- activating autophosphorylation of the other three splicing variants of Tak1 [1]: does not induce activating autophosphorylation
- amount of cdc25B in the nucleus [2]: decreases
- amount of RNA bound to immobilized FLAG-TAK1-D [3]: significantly greater; also recorded: increased binding
- growth inhibitory or cytotoxic effect [4]: no growth inhibitory or cytotoxic effect could be observed; also recorded: no cytotoxicity or growth delay
- apoptotic activation of Caspase-3 (DAB staining) [5]: visible in many cells
- cellular apoptotic response with inactivated Tak1-D catalytic activity ([6]; H460, adenoviral K63W, 48 h after siRNA): significantly reduced
- nuclear morphology, HOECHST 33342 staining ([6]; H460 cells, 48 h): typical apoptotic chromatin condensation and fragmentation
- time until PARP cleavage ([6]; H460 cells, Western blot): ≤ 24 h
- caspase 3 cleavage ([6]; NCI-H460, 24 h after treatment): cells from the G1 and the S phase of the cell cycle show caspase 3 cleavage
- fraction of G1 and S phase cells staining positive for cleaved caspase 3 ([6]; NCI-H460, 48 h, compared with 24 h): higher
- activation of p38 MAPK [7]: activate p38 MAPK
